Data taken from US20220127568A1, “COMPOSITIONS AND METHODS FOR GENERATING HAIR CELLS BY INHIBITING EPIGENETIC TARGETS” (Frequency Therapeutics, Inc., priority 2019, published 2022).

Assays:
KDM1 = settings: Table 9, first KDM data cell; read-out: Select KDM1; cited from earlier work
KDM5 = settings: Table 9; read-out: Select KDM5; cited from earlier work
KDM7 = settings: Table 9; read-out: Select KDM7; cited from earlier work
[1] = test system: Lgr5 GFP+ cochlear progenitor cells; test: Lgr5+ Assay (Stem Cell Proliferation Assay); format: cell-based
GSK-3 alpha = GSK-3 alpha (Homo sapiens, UniProt P49840); settings: Table 2; cited from earlier work
[2] = test system: Lgr5+ cochlear progenitor cells; test: Quantification of Lgr5+ cochlear progenitor cell proliferation, expansion and enrichment (3D Matrigel culture, Celigo imaging, GFP(+) cell area); format: cell-based, mouse
KDM1b = molecular target: T1, KDM1b (Homo sapiens, UniProt Q8NB78); settings: Table 1; read-out: Select KDM1b; cited from earlier work
T1 sequence (Q8NB78 1-822): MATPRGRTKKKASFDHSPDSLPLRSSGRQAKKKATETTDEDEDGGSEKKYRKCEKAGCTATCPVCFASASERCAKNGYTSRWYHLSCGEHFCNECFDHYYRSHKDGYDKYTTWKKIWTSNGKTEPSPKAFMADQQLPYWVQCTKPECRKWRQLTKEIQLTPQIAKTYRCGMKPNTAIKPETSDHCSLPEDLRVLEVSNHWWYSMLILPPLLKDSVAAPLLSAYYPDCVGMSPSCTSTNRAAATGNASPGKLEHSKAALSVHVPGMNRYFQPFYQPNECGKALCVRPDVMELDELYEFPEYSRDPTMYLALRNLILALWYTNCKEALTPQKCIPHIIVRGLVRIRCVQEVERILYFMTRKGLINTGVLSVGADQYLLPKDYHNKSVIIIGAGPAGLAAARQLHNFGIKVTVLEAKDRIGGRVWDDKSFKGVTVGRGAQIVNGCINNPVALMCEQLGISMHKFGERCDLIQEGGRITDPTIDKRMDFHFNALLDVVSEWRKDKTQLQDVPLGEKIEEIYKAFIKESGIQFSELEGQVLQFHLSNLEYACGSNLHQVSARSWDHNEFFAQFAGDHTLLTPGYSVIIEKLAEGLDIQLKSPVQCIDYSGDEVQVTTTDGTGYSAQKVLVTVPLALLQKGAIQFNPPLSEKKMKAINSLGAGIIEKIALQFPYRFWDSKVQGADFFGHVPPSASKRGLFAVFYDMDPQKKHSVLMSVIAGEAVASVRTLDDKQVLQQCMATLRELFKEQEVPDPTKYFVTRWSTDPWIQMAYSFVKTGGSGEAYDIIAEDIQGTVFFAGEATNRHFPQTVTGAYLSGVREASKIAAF

LSD1 = LSD1 (Homo sapiens, UniProt O60341); settings: literature cell potency, LSD1 inhibitors; cited from earlier work
[3] = cited from earlier work
DOT1L = DOT1L (Homo sapiens, UniProt Q8TEK3); settings: literature cell potency, DOT1L inhibitors; cited from earlier work
Chain of DOT1L (Q8TEK3 whole entry, species assumed): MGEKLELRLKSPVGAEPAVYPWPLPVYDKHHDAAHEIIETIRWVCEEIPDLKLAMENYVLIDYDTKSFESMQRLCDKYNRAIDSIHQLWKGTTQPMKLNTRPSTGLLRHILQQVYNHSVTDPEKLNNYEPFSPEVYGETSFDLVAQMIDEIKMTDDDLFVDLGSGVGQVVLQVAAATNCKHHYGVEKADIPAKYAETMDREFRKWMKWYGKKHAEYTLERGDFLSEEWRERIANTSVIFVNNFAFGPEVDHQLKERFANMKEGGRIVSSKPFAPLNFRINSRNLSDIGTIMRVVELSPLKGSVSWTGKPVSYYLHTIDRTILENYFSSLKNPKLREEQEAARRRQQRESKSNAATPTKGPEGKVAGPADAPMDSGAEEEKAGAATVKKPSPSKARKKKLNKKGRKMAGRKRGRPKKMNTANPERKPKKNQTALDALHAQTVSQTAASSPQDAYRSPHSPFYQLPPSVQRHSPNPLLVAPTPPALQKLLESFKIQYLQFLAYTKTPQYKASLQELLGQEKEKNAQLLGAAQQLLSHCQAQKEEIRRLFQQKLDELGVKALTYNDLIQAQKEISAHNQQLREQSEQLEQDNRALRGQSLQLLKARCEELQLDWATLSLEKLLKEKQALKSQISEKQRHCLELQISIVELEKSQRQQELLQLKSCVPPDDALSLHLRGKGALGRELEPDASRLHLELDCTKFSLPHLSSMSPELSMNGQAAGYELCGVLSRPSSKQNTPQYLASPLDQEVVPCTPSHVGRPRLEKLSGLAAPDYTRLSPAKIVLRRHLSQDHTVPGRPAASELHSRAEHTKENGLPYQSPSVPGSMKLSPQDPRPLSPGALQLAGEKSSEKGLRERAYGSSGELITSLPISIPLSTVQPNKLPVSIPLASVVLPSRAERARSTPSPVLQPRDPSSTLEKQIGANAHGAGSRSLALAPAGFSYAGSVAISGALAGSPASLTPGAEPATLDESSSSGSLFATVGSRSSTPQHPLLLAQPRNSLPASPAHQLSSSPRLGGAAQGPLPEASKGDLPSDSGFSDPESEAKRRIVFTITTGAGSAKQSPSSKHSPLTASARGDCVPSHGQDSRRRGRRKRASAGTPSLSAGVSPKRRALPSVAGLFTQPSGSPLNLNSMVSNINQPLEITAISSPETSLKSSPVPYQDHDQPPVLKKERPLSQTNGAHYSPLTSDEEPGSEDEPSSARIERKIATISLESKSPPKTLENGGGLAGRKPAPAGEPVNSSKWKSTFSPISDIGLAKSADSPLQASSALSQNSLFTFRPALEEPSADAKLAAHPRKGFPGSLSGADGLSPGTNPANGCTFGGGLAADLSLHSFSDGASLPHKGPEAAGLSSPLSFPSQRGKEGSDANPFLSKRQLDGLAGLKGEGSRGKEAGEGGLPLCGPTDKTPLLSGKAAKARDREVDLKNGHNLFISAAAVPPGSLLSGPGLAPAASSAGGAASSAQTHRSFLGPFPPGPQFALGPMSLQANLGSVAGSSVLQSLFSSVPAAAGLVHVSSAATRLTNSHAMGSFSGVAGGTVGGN

Chain of GSK-3 alpha (P49840 whole entry): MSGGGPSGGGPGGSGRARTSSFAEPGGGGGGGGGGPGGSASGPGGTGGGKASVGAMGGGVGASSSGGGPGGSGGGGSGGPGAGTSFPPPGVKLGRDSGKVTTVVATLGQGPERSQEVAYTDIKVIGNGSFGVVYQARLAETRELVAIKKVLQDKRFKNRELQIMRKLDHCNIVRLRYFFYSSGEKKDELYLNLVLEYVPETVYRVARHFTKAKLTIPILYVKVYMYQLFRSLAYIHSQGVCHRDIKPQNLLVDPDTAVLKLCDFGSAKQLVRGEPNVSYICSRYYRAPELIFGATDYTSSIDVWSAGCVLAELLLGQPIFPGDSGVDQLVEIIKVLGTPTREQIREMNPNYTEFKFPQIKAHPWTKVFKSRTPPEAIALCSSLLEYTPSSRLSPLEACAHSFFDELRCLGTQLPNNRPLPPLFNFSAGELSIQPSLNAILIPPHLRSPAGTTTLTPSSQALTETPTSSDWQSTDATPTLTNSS

CN1CCN(C(=O)CN[C@@H]2C[C@H]2c2ccc(OCc3ccccc3)cc2)CC1 [Compound 1]
IC50 (KDM1): 220 nM
IC50 (KDM5): 190 nM
IC50 (KDM7): 220 nM

Cc1ccc(C(=O)Nc2c[nH]nc2C(=O)NCCCOC(C)C)cn1 [GSK XX1I]
Lgr5+ Assay ([1]; Wnt agonists (GSK3 inhibitors), active concentration range): 0.2 to 1 µM
IC50 (GSK-3 alpha): 2.3 nM

N[C@H]1CC[C@H](N[C@@H]2C[C@H]2c2ccccc2)CC1 [ORY-1001]
Lgr5 GFP(+) cell area ([1]; FIG. 6A: 0-30 μM ORY-1001 alone in EFI vs EFI-C, EFI-CV): does not proliferate
Lgr5 GFP(+) cell area percentage ([1]; FIG. 6B: 0-30 μM ORY-1001 alone in EFI vs EFI-C, EFI-CV): does not enrich
Lgr5 GFP(+) cell area ([1]; FIG. 7A: 41 nM ORY-1001 + 4 uM CHIR99021 + 1 mM VPA in EFI vs CHIR+VPA): further enhances Lgr5 GFP+ progenitor cell proliferation
enrichment of Lgr5 GFP+ cells (y-axis: Lgr5 GFP(+) cell area) ([1]; FIG. 7B: 41 nM ORY-1001 + 4 uM CHIR99021 + 1 mM VPA in EFI vs CHIR+VPA): further enhances enrichment
Lgr5+ progenitor cell proliferation and enrichment ([2]; inhibitor 41 nM with CHIR99021 (4 μM) and VPA (1 mM)): enhanced Lgr5+ progenitor cell proliferation and enrichment
proliferation or enrichment of cochlear progenitor cells ([2]; inhibitor alone): does not promote the proliferation or enrichment
IC50 (KDM1b): > 100000 nM
Literat. Cell (LSD1): 0.5 to 3 nM
Human Plasma Conc. ([3]; human plasma, LSD1 inhibitors): 1 to 100 nM

CC(C)N(C[C@H]1O[C@@H](n2cnc3c(N)ncnc32)[C@H](O)[C@@H]1O)[C@H]1C[C@@H](CCc2nc3cc(C(C)(C)C)ccc3[nH]2)C1 [pinometostat]
Human In Vivo Conc ([3]; DOT1L inhibitors): (1-10 uM) μM
Human In Vivo Conc: Total plasma Css ([3]; total plasma Css): 800 to 1600 ng/mL
Human In Vivo Conc: Total plasma Css (molar, in brackets) ([3]; total plasma Css): (1.42-2.94 uM)
Lit Cell (DOT1L): 2.7 nM
